Source: ChEMBL document CHEMBL1909530, “Computational techniques are valuable tools for the discovery of protein-protein interaction inhibitors: the 14-3-3σ case” (Bioorg Med Chem Lett, 2011)
Positions count from the first letter of the chain named. Each block holds one molecule with its values, some of them ahead of it. Active and inactive are the calls of the source. No cut-off for these calls is given here.

Legend:
[1] = target: T1, 14-3-3 protein sigma (Homo sapiens) (UniProt P31947); test: Inhibition of 14-3-3sigma binding domain in human Ba/F3 cells expressing imatibib-resistant Bcr-Abl T315I mutant construct assessed as inhibition of 14-3-3sigma-c-Abl interaction; type: cell-based; details: BaF3
T1 sequence (whole entry): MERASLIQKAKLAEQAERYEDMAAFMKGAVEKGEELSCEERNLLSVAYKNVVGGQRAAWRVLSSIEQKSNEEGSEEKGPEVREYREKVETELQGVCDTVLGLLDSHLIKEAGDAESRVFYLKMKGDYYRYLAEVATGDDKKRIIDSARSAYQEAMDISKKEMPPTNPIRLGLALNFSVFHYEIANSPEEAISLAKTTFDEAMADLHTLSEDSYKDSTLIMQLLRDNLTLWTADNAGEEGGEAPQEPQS

[2] = target: T1, 14-3-3 protein sigma (Homo sapiens); test: Inhibition of 14-3-3sigma binding domain in human Ba/F3 cells expressing imatibib-sensitive wild type Bcr-Abl construct assessed as inhibition of 14-3-3sigma-c-Abl interaction; type: cell-based; details: BaF3
[3] = target: T1, 14-3-3 protein sigma (Homo sapiens); test: Inhibition of 14-3-3sigma in human Ba/F3 cells expressing imatinib-sensitive wild type Bcr-Abl construct assessed as nuclear import of full-length c-Abl at 5 uM after 24 hrs by immunoprecipitation/immunoblot technique; type: cell-based; details: BaF3
[4] = target: T1, 14-3-3 protein sigma (Homo sapiens); test: Inhibition of 14-3-3sigma in human Ba/F3 cells expressing imatinib-sensitive wild type Bcr-Abl construct assessed as release of full-length c-Abl from cytoplasmic complex with 14-3-3sigma at 5 uM after 24 hrs by immunoprecipitation/immunoblot technique; type: cell-based; details: BaF3
[5] = target: T1, 14-3-3 protein sigma (Homo sapiens); test: Inhibition of 14-3-3sigma in human Ba/F3 cells expressing imatinib-sensitive wild type Bcr-Abl construct assessed as cleaved c-Abl at mitochondrial membranes at 5 uM after 24 hrs by immunoprecipitation/immunoblot technique; type: cell-based; details: BaF3
14-3-3 protein sigma = target: T2, 14-3-3 protein sigma (Homo sapiens, UniProt P31947); test: Binding affinity to histidine-tagged human recombinant 14-3-3sigma by transferred NOESY analysis
T2 sequence (P31947 whole entry): T1 sequence (whole entry)

[6] = target: T1, 14-3-3 protein sigma (Homo sapiens); test: Inhibition of 14-3-3sigma in human Ba/F3 cells expressing imatinib-sensitive wild type Bcr-Abl construct assessed as relocation of full-length c-Abl to mitochondrial membranes at 5 uM after 24 hrs by immunoprecipitation/immunoblot technique; type: cell-based; details: BaF3
[7] = target: T1, 14-3-3 protein sigma (Homo sapiens); details: BaF3, 1 uM
Description: Inhibition of 14-3-3sigma in human Ba/F3 cells expressing wild type Bcr-Abl construct assessed as release of full-length c-Abl from cytoplasmic complex with 14-3-3sigma at 1 uM after 24 hrs by immunoprecipitation/immunoblot technique

[8] = target: T1, 14-3-3 protein sigma (Homo sapiens); test: Inhibition of 14-3-3sigma in human Ba/F3 cells expressing imatinib-sensitive wild type Bcr-Abl construct assessed as cell survival; type: cell-based; details: BaF3
[9] = target: T3, 14-3-3 protein sigma (Mus musculus) (UniProt O70456); test: Inhibition of 14-3-3sigma in mouse 32D cells expressing imatinib-sensitive wild type Bcr-Abl construct assessed as cell survival; type: cell-based
T3 sequence (whole entry): T1 sequence (whole entry) with G28S, R82K, Q93R, E110G, N234S, Q244E

SMILES: Cc1c(NC(=O)c2cc(C(=O)O)ccc2C(=O)O)c(=O)n(-c2ccccc2)n1C
LD50 [1]: 1.47 µM | LD50 [2]: 1.04 µM

SMILES: CCCCCCOC(=O)c1ccc(Nc2c([N+](=O)[O-])cc(C(=O)O)cc2[N+](=O)[O-])cc1
inhibition [3]: Active | LD50 [1]: 1.7 µM | inhibition [4]: Active | inhibition [5]: Active | Kd (14-3-3 protein sigma): > 1000 nM | inhibition [6]: Active | LD50 [2]: 1.41 µM

inhibition [7]: Active
SMILES: Cc1ccc(NC(=O)c2ccc(CN3CCN(C)CC3)cc2)cc1Nc1nccc(-c2cccnc2)n1

SMILES: Cc1ccc(-c2cc(-c3ccccc3)nc(N/N=C/c3cc([N+](=O)[O-])ccc3O)n2)cc1
LD50 [8]: 0.65 µM | LD50 [9]: 2.84 µM | LD50 [2]: 0.65 µM
